The melting point is the temperature, or range, at which the solid turns liquid.

The text below walks through data of a melting point compilation (Tetko et al.; mined from patent text by program, amines drawn as free bases though some values may be those of a salt).

Each structure is given as a SMILES string.

Take `CC(C)=NOCc1nc2c(N)nc3cccnc3c2n1CC(C)(C)O`: the melting point was in the range of 198 to 200 °C. In turn, `Cc1nnc(-c2ccc3occ(-c4ccc(S(=O)CF)cc4)c3c2)o1` (stereo unspecified) displayed a melting point of 173 to 174 °C.

Consider `C=CCc1cc(C=C(C(=O)OCC)C(=O)OCC)cc(OC)c1OC`, for which the melting point was in the range of 43 to 44 °C. The compound `CCCCCCCN(CCCCCSc1nc(-c2ccccc2)c(-c2ccccc2)[nH]1)C(=O)NCCC` showed a melting point of 78 to 80 °C. With `O=Cc1cc2c3ccccc3c3ccccc3c2o1` the figure was 84 to 85 °C.

For the compound `CCOC(=O)C(O)c1ccccc1Nc1c(Cl)cccc1Cl` (stereo unspecified), the melting point lay within 155 to 156 °C. Take `COc1ccnc(Cl)c1N`: the melting point lay in the range of 86 to 87 °C. In turn, `O=C(COc1ccc(CCNCC(O)COc2ccccc2)cc1)NO` (stereo unspecified) had a melting point of 126 to 128 °C. With `Nc1nc2[nH]c(CCCCCc3ccc(C(=O)N[C@@H](CCC(=O)O)C(=O)O)s3)cc2c(=O)[nH]1` the figure was 181 to 182 °C; with `O=C(C=Cc1c(Cl)cccc1Cl)c1c(Cl)cccc1Cl`, 124 to 125 °C. In the case of `CCC1(CCCCCN2CCN(c3ccccn3)CC2)C(=O)Nc2ccccc21` (stereo unspecified), the melting point lay in the range of 127 to 128 °C. Compound `CCOC(=O)CC1SC2=Nc3ccccc3CN2C1=O` (stereo unspecified) registered a melting point of 130 to 142 °C. With `N#Cc1ccc(C(=O)O)c(Cl)c1` the figure was 154 to 158 °C. With `O=c1[nH]c(=O)n(Cc2ccc(Cl)cc2)c2ccccc12`, the melting point was 217 to 218 °C. Then `c1ccc(-c2nc3ccc(Cn4ccnc4)cc3nc2-c2ccccc2)cc1`, with 159 °C; and `C=CCOc1cccc2oc(C=CC(=O)OCC)c(C)c12`, with 79 to 80 °C; and `Nc1ncc(C(F)(F)F)cc1[N+](=O)[O-]`, with 110 to 112 °C. With `CCN(c1cccc2cc(C3=NCCS3)[nH]c12)S(=O)(=O)c1cccs1` the figure was 206 to 207 °C; with `CCCCCCCCSCN1CN(CSCCCCCCCC)c2cccc3cccc1c23`, 52 to 56 °C; with `CCCCCCCCCCCCCCOCC(CI)(CI)COCCCCCCCCCCCCCC`, 27 to 28 °C. For `CC1(C)CCC(=O)Nc2ccc(N)cc21`, the melting point amounted to 168 °C.

In the case of `Cc1nc2c(N)nc3c(c2n1CC(C)(C)OCCS(C)(=O)=O)CCCC3`, the melting point is 226 to 229 °C.

For `CCSC(C)(C)C(=O)CC(=O)Nc1cc(NC(=O)CCCOc2ccc(C(C)(C)CC)cc2C(C)(C)CC)ccc1Cl`, the melting point fell in the range of 121 to 122 °C. As to `NC(=O)Oc1ccccc1-c1nc2cc(F)c(OCc3c(Cl)cccc3Cl)cc2s1`, the melting point is 245 to 250 °C. Consider `CC(=O)Oc1cc(OCCF)ccc1C(=O)O`, for which the melting point was in the range of 126 to 127 °C.

In turn, `Cn1nc(-c2cccs2)n(C)c1=S` came in with a melting point of 128 to 129 °C. Then `COc1ccc(C(=O)Nc2c(Cl)cncc2Cl)cc1OC1COCC1OCSC` (stereo unspecified), with 195 to 198 °C; and `CCOC(=O)c1cc(-c2ccccc2)nc2c(N)cccc12`, with 66 to 69 °C; and `O=C(O)c1cn(C2CC2)c2cc(N3CCN(C(=O)OCCn4cccn4)CC3)c(F)cc2c1=O`, with 205 to 208 °C. In turn, `Cc1c(-n2ccnc2)[nH]c2ccccc12` gave a melting point of 156 to 158 °C. Consider `CC(=O)c1c(-c2ccncc2)[nH]c(-c2ccccc2)c1C`, for which the melting point was in the range of 208 to 209 °C.

Take `NC(=O)Oc1ccccc1-c1nc2ccc(OCc3c(F)cccc3Cl)cc2s1`: the melting point was 227 °C. With `O=C1c2ccccc2-n2cnc(-c3nc(CN4Cc5ccccc5C4)no3)c2[C@@H]2CCN12` the figure was 210 to 213 °C; with `CC(C)(C)OC(=O)c1cc(N=Nc2ccccc2CCC(=O)O)ccc1O`, 86 to 88 °C; with `CCC(=O)Nc1nc2cccc(C)c2c(=O)o1`, 108 to 109 °C.

In turn, `CCCCc1c[nH]c2c(Br)cccc2c1=O` returned a melting point of 172 °C. With `O=C(O)CCc1c(Br)cccc1C(F)(F)F` the figure was 122 to 126 °C; with `Fc1ccc(C2=CC(=C(C(F)(F)F)C(F)(F)F)N=C2c2ccc(F)cc2)cc1`, 145 to 146 °C.

In turn, `CCOC(=O)COc1ccc(CC2SC(=O)NC2=O)cc1` (stereo unspecified) registered a melting point of 105 to 106 °C. `COc1cc(C=CC=O)ccc1OC(C)=O` displayed a melting point of 83 to 86 °C. For the compound `CCCC1CCC(C2CCC(C3CCCC(=O)C3)CC2)CC1` (stereo unspecified), the melting point came to 1.5 °C. Then `CCOCc1nc2c(N)nc3cc(Br)cnc3c2n1CC(C)(C)NC(=O)OC(C)(C)C`, with 176 to 178 °C. Consider `CCC(=O)Oc1cccc2c1C(=O)c1c(OC(=O)CC)cc(-c3nnn[nH]3)cc1C2=O`, for which the melting point lay within 176 to 178 °C. With `CNC(=O)Nc1cc(C#N)ccn1` the figure was 203 to 204 °C; with `CCSc1cc2c(cc1OC)CCn1c-2cc2c1C(=O)N(C(C)(C)C)CCCC2`, 124 to 125 °C.

In turn, `Cc1ccc(S(=O)(=O)n2c(CCC(=O)O)cc3cc(Cl)ccc32)cc1` returned a melting point of 165 to 168 °C. With `COc1ccc(CC2SC(=O)NC2=O)c2c1N(CC(=O)O)C(=O)CC2` (stereo unspecified) the figure was 251 to 255 °C. The compound `CSc1ccc(-n2c(-c3ccc(F)cc3)nc(SC)c(C#N)c2=O)cc1` registered a melting point of 204 to 207 °C. Then `O=C1NC(=S)SC1=Cc1ccc2c(c1)N(CCc1cccc(Cl)c1)C(=O)CO2`, with 280 to 282 °C. With `CCOc1cc2ncc(C#N)c(NCc3ccc(Cl)c(Cl)c3)c2cc1OCC` the figure was 163 to 165 °C.

In turn, `CCCC(=O)c1c(C(C)(C)C)cc(C=[N+]([O-])C(C)(C)C)cc1C(C)(C)C` registered a melting point of 217 to 236 °C.

Compound `CC1Nc2ccc3c(c2N1C)OC(CN1CC=C(c2c[nH]c4ccccc24)CC1)CO3` (stereo unspecified) gave a melting point of 186 to 188 °C. With `CCCc1c(N)c(C(C)=O)cc(C(C)=O)c1O` the figure was 138 to 139 °C. Then `COC(=O)c1c(OCc2ccccc2)ccc2c1CC[C@@H](N)[C@@H]2O` (relative stereo), with 124 to 126 °C; and `O=C=Nc1c(Cl)c(Cl)c(Cl)c(Cl)c1Cl`, with 100 to 102 °C; and `C[C@H](N[C@@H]1CNC(=O)C12CC2)c1ccccc1`, with 107 to 110 °C. With `CC(=O)c1ccc(S(=O)(=O)NCCc2ccc(CC(=O)O)cc2)cc1` the figure was 193 to 194 °C; with `COc1ccc(-c2nc(N)sc2-c2ccncc2)cc1`, 282 to 284 °C; with `COc1ccc2cc(C=NNC(N)=O)ccc2c1`, 218 to 219 °C. `O=C(CC(F)(F)F)NCC(=O)n1ccc2cc(/C=C/C(c3cc(Cl)c(F)c(Cl)c3)C(F)(F)F)ccc21` (stereo unspecified) came in with a melting point of 121 to 126 °C. With `CCc1nc(C)cn1-c1ccc2nc(NC(=O)c3ccc(C(C)(C)C)cc3)cn2n1` the figure was 220 to 221 °C; with `CC(=O)N1CCC(CCCC(=O)c2ccc3c(c2)CCNCC3)CC1`, 90 to 91 °C. The compound `CCOC(=O)c1csc(Nc2ccc(C)cn2)n1` registered a melting point of 198 to 200 °C.

As for `Cc1nc2ccccc2n1Cc1cc([N+](=O)[O-])ccc1O`, the melting point is greater than 260 °C. With `CCOC(=O)N1CC[C@@H]2CC(=O)c3cc([N+](=O)[O-])ccc3C[C@H]2C1` (relative stereo) the figure was 112 to 114 °C. In turn, `CON(c1ccc([N+](=O)[O-])cc1[N+](=O)[O-])S(=O)(=O)c1ccc(C)cc1` yielded a melting point of 146 to 148 °C.

For `Cn1c(COc2ccc(CC3SC(=O)NC3=O)cc2)nc2ccc(Oc3cccc(NC(=O)Nc4cccc(C#N)c4)c3)cc21` (stereo unspecified), the melting point lay within 148 to 154 °C. With `O=C(O)c1cn(Cc2c(F)cccc2Cl)nn1`, the melting point is 274 to 276 °C.

On to `CC(C)C(C)NC1=Nc2ccc(Cl)cc2S(=O)(=O)N1C` (stereo unspecified), for which the melting point was 102 to 105 °C. As for `CC(C)CC(=O)NC(=O)c1nnn(Cc2ccccc2)c1NC(=O)CC(C)C`, the melting point fell in the range of 125 to 128 °C. With `Nc1ncc(-c2ccc(F)cc2)cc1[N+](=O)[O-]` the figure was 232 °C. Then `COc1ccc(C(=O)C=Cc2cc(O)c(O)c([N+](=O)[O-])c2)cc1OC`, with 206 to 208 °C; and `COc1ccc(-c2n[nH]cc2C(=O)N2CCOCC2)cc1OC`, with 122 °C; and `O=C(Nc1ccccc1S(=O)(=O)C1CCCC1)N[C@@H](Cc1ccc(NC(=O)c2c(Cl)cncc2Cl)cc1)C(=O)O`, with 233 °C.

For `CCOC(=O)C1=C(C)N2CCCC2=C(C(C)=O)C1c1cccc([N+](=O)[O-])c1` (stereo unspecified), the melting point amounted to 161 °C. With `CC1(C)c2cc3[nH]c(-c4ccncc4)nc3cc2C(=O)NC1O` (stereo unspecified) the figure was 260 to 268 °C. With `CNC(=C[N+](=O)[O-])NCCOc1cccc(CN(C)C)c1` the figure was 130 to 131 °C; with `O=C1OC(c2ccc(Cl)c(S(=O)(=O)Cl)c2)c2ccccc21` (stereo unspecified), 158 to 159 °C; with `CC1(C)CC(=O)C2=C(C1)NC1=C(C(=O)CC(C)(C)C1)C2c1ccc2ccccc2c1`, greater than 300 °C. With `COC(=O)CC/C(C)=C/Cc1c(NC=O)c2c(c(C)c1OC)COC2=O` the figure was 187 to 189 °C; with `COC(=O)[C@@H](C)Oc1ccc(Oc2cnc3ccc(Cl)cc3n2)cc1`, 80 °C; with `CCCCNC(=S)N1CCC(c2nc(-c3ccc(-c4ccccc4)cc3)c[nH]2)CC1`, 102 to 103 °C. In turn, `CC(c1ccc(C#Cc2ccccc2)cc1)N(O)C(N)=O` (stereo unspecified) displayed a melting point of 144 to 146 °C. `Cc1cc(-c2oncc2CCCO)ccc1Cl`: the melting point is 50 to 51 °C. In turn, `Nc1ccc(CS(=O)(=O)Nc2ccccc2)cc1` came in with a melting point of 180 to 182 °C.

`CCCC(=CC(=O)O)CCC` displayed a melting point of 20 °C. In turn, `CC(C)CN1C(=O)CCC(c2ccccc2Cl)c2ccccc21` (stereo unspecified) had a melting point of 139 to 140 °C. With `C=CC(C)(C)C(O)C(Oc1ccc(Cl)cc1)n1ccnc1` (stereo unspecified) the figure was 88 to 90 °C. Compound `C#CCOc1cc(Oc2cc(Cl)cc(Cl)c2)ncn1` registered a melting point of 136 °C. `CN(C)C(=S)ON1C(=O)C2CCCCC2C1=O` (stereo unspecified): the melting point lay within 124 to 126 °C.

For the compound `CCOC12CC(C=C(C#N)COC)=CC=C1OCO2` (stereo unspecified), the melting point was in the range of 64 to 65 °C.
